Results from ChEMBL document CHEMBL3885881, “DrugMatrix”.

Organism: Rattus norvegicus
Assay: DrugMatrix - Regimen: Daily Repeat
Type: toxicity, organism-based, Sprague-Dawley
Parameters: regimen Daily Repeat, gender Male, age 6-8 weeks
Details: in vivo, route none, vehicle 100 % UNTREATED; for BASOPHIL / ERYTHROCYTE COUNT / HEMATOCRIT / HEMOGLOBIN / LEUKOCYTE COUNT / LYMPHOCYTE / MEAN CORPUSCULAR HEMOGLOBIN / MEAN CORPUSCULAR HEMOGLOBIN CONCENTRATION / MONOCYTE / NEUTROPHIL / NUCLEATED RED BLOOD CELLS / PLATELET COUNT / ABSOLUTE BASOPHIL / ABSOLUTE EOSINOPHIL / ABSOLUTE LYMPHOCYTE / ABSOLUTE MONOCYTE / ABSOLUTE SEGMENTED NEUTROPHIL / EOSINOPHIL / MEAN CORPUSCULAR VOLUME: tissue Blood
[1] = 60 mg/kg, 120 h, dose level M1, time 5 day
[2] = 60 mg/kg, 120 h, tissue Plasma, dose level M1, time 5 day
[3] = 60 mg/kg, […], dose level M1, time 14 day
[4] = 60 mg/kg, […], tissue Plasma, dose level M1, time 14 day
[5] = 75 mg/kg, 120 h, dose level High, time 5 day
[6] = 75 mg/kg, 120 h, tissue Plasma, dose level High, time 5 day
[7] = 75 mg/kg, […], dose level High, time 14 day
[8] = 75 mg/kg, […], tissue Plasma, dose level High, time 14 day

Diet_Restriction
BASOPHIL [1]: 0% | ERYTHROCYTE COUNT [1]: 5.22 x10E6/uL | HEMATOCRIT [1]: 32.2% | HEMOGLOBIN [1]: 11.93 G/DL | LEUKOCYTE COUNT [1]: 4.3 x10E3/uL | LYMPHOCYTE [1]: 87.33% | MEAN CORPUSCULAR HEMOGLOBIN [1]: 22.9 pg | MEAN CORPUSCULAR HEMOGLOBIN CONCENTRATION [1]: 37.1 G/DL | MONOCYTE [1]: 0.67% | NEUTROPHIL [1]: 10.67% | NUCLEATED RED BLOOD CELLS [1]: 0 /100WBC | PLATELET COUNT [1]: 765.33 x10E3/uL | ALANINE AMINOTRANSFERASE [2]: 32.33 u/L | ALBUMIN [2]: 4.3 G/DL | ALKALINE PHOSPHATASE [2]: 267.33 u/L | ASPARTATE AMINOTRANSFERASE [2]: 64.33 u/L | BLOOD UREA NITROGEN [2]: 6.33 mg/dL | CARBON DIOXIDE [2]: 31.33 mmol/L | CHOLESTEROL [2]: 52 mg/dL | CREATINE PHOSPHOKINASE [2]: 263 u/L | CREATININE [2]: 0.14 mg/dL | GLUCOSE [2]: 137.33 mg/dL | LACTATE DEHYDROGENASE [2]: 96 u/L | PHOSPHORUS [2]: 10.27 mg/dL | POTASSIUM [2]: 5.6 MEQ/L | TOTAL BILIRUBIN [2]: 0.1 mg/dL | TOTAL PROTEIN [2]: 5.93 G/DL | ABSOLUTE BASOPHIL [3]: 0 CELLS/uL | ABSOLUTE EOSINOPHIL [3]: 64 CELLS/uL | ABSOLUTE LYMPHOCYTE [3]: 14236 CELLS/uL | ABSOLUTE MONOCYTE [3]: 39.33 CELLS/uL | ABSOLUTE SEGMENTED NEUTROPHIL [3]: 894 CELLS/uL | BASOPHIL [3]: 0% | EOSINOPHIL [3]: 0.33% | ERYTHROCYTE COUNT [3]: 6.6 x10E6/uL | HEMATOCRIT [3]: 37.43% | LEUKOCYTE COUNT [3]: 15.23 x10E3/uL | LYMPHOCYTE [3]: 92.67% | MEAN CORPUSCULAR HEMOGLOBIN [3]: 21.37 pg | MEAN CORPUSCULAR HEMOGLOBIN CONCENTRATION [3]: 37.67 G/DL | MEAN CORPUSCULAR VOLUME [3]: 56.73 fL | MONOCYTE [3]: 0.33% | NEUTROPHIL [3]: 6.67% | NUCLEATED RED BLOOD CELLS [3]: 0 /100WBC | PLATELET COUNT [3]: 800.67 x10E3/uL | ALANINE AMINOTRANSFERASE [4]: 47 u/L | ALBUMIN [4]: 4.4 G/DL | ALKALINE PHOSPHATASE [4]: 256 u/L | ASPARTATE AMINOTRANSFERASE [4]: 114.33 u/L | BLOOD UREA NITROGEN [4]: 15 mg/dL | CARBON DIOXIDE [4]: 25 mmol/L | CHOLESTEROL [4]: 65 mg/dL | CREATINE PHOSPHOKINASE [4]: 1426.33 u/L | CREATININE [4]: 0.23 mg/dL | GLUCOSE [4]: 165.33 mg/dL | LACTATE DEHYDROGENASE [4]: 131.33 u/L | LIPASE [4]: 12 u/L | PHOSPHORUS [4]: 11.63 mg/dL | POTASSIUM [4]: 5.69 MEQ/L | TOTAL BILIRUBIN [4]: 0.17 mg/dL | TOTAL PROTEIN [4]: 6.17 G/DL | ABSOLUTE BASOPHIL [5]: 0 CELLS/uL | ABSOLUTE EOSINOPHIL [5]: 35.33 CELLS/uL | ABSOLUTE LYMPHOCYTE [5]: 3939.33 CELLS/uL | ABSOLUTE MONOCYTE [5]: 67.67 CELLS/uL | ABSOLUTE SEGMENTED NEUTROPHIL [5]: 957.67 CELLS/uL | BASOPHIL [5]: 0% | EOSINOPHIL [5]: 0.67% | ERYTHROCYTE COUNT [5]: 5.54 x10E6/uL | HEMATOCRIT [5]: 33.63% | HEMOGLOBIN [5]: 12.8 G/DL | LEUKOCYTE COUNT [5]: 5 x10E3/uL | LYMPHOCYTE [5]: 79% | MEAN CORPUSCULAR HEMOGLOBIN [5]: 23.13 pg | MEAN CORPUSCULAR HEMOGLOBIN CONCENTRATION [5]: 38.07 G/DL | NEUTROPHIL [5]: 19% | NUCLEATED RED BLOOD CELLS [5]: 0 /100WBC | PLATELET COUNT [5]: 1074.67 x10E3/uL | ALANINE AMINOTRANSFERASE [6]: 49.33 u/L | ALBUMIN [6]: 4.3 G/DL | ALKALINE PHOSPHATASE [6]: 317.33 u/L | ASPARTATE AMINOTRANSFERASE [6]: 72 u/L | BLOOD UREA NITROGEN [6]: 9.33 mg/dL | CARBON DIOXIDE [6]: 35 mmol/L | CHOLESTEROL [6]: 65.67 mg/dL | CREATINE PHOSPHOKINASE [6]: 288.33 u/L | CREATININE [6]: 0.15 mg/dL | GLUCOSE [6]: 136.33 mg/dL | LACTATE DEHYDROGENASE [6]: 95.67 u/L | PHOSPHORUS [6]: 11.33 mg/dL | POTASSIUM [6]: 6.01 MEQ/L | SODIUM [6]: 146.17 MEQ/L | TOTAL BILIRUBIN [6]: 0.1 mg/dL | TOTAL PROTEIN [6]: 6.23 G/DL | URIC ACID [6]: 1 mg/dL | ABSOLUTE BASOPHIL [7]: 0 CELLS/uL | ABSOLUTE EOSINOPHIL [7]: 0 CELLS/uL | ABSOLUTE LYMPHOCYTE [7]: 13779.33 CELLS/uL | ABSOLUTE MONOCYTE [7]: 115 CELLS/uL | ABSOLUTE SEGMENTED NEUTROPHIL [7]: 2472.33 CELLS/uL | BASOPHIL [7]: 0% | EOSINOPHIL [7]: 0% | ERYTHROCYTE COUNT [7]: 6.39 x10E6/uL | HEMATOCRIT [7]: 35.97% | HEMOGLOBIN [7]: 13.47 G/DL | LEUKOCYTE COUNT [7]: 16.37 x10E3/uL | LYMPHOCYTE [7]: 84.33% | MEAN CORPUSCULAR HEMOGLOBIN [7]: 21.13 pg | MEAN CORPUSCULAR HEMOGLOBIN CONCENTRATION [7]: 37.47 G/DL | MEAN CORPUSCULAR VOLUME [7]: 56.37 fL | MONOCYTE [7]: 0.67% | NEUTROPHIL [7]: 15% | NUCLEATED RED BLOOD CELLS [7]: 0 /100WBC | PLATELET COUNT [7]: 941 x10E3/uL | ALANINE AMINOTRANSFERASE [8]: 51 u/L | ALKALINE PHOSPHATASE [8]: 319.33 u/L | ASPARTATE AMINOTRANSFERASE [8]: 77.33 u/L | BLOOD UREA NITROGEN [8]: 14 mg/dL | CHLORIDE [8]: 99.67 MEQ/L | CHOLESTEROL [8]: 64.33 mg/dL | CREATINE PHOSPHOKINASE [8]: 271.33 u/L | CREATININE [8]: 0.23 mg/dL | GLUCOSE [8]: 175 mg/dL | LACTATE DEHYDROGENASE [8]: 113 u/L | LIPASE [8]: 20.33 u/L | PHOSPHORUS [8]: 12.13 mg/dL | POTASSIUM [8]: 5.75 MEQ/L | TOTAL BILIRUBIN [8]: 0.13 mg/dL | TOTAL PROTEIN [8]: 6.1 G/DL | URIC ACID [8]: 1.3 mg/dL
